Our source for the IC50 values is patent US10660877B2 (BRISTOL-MYERS SQUIBB COMPANY, priority 2016, dated 2020).

Molecules are shown by their SMILES. Where two headings read alike, the source gives them in different places. Bounds are passed on as bounds.

In one assay the target is human TLR9 (Homo sapiens (Human), UniProt Q9NR96). Briefly: TLR9 inhibition reporter assay (HEK-Blue cells, SEAP reporter, ODN2006 stimulation). (In a reporter assay the amount or activity of a reporter protein is the signal.);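 note: compounds tested over 0.05 nM to 50 µM, 22 h incubation, inhibition taken as SEAP signal drop from agonist plus DMSO wells toward a known inhibitor control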
Sequence of human TLR9 (Q9NR96 26-1032): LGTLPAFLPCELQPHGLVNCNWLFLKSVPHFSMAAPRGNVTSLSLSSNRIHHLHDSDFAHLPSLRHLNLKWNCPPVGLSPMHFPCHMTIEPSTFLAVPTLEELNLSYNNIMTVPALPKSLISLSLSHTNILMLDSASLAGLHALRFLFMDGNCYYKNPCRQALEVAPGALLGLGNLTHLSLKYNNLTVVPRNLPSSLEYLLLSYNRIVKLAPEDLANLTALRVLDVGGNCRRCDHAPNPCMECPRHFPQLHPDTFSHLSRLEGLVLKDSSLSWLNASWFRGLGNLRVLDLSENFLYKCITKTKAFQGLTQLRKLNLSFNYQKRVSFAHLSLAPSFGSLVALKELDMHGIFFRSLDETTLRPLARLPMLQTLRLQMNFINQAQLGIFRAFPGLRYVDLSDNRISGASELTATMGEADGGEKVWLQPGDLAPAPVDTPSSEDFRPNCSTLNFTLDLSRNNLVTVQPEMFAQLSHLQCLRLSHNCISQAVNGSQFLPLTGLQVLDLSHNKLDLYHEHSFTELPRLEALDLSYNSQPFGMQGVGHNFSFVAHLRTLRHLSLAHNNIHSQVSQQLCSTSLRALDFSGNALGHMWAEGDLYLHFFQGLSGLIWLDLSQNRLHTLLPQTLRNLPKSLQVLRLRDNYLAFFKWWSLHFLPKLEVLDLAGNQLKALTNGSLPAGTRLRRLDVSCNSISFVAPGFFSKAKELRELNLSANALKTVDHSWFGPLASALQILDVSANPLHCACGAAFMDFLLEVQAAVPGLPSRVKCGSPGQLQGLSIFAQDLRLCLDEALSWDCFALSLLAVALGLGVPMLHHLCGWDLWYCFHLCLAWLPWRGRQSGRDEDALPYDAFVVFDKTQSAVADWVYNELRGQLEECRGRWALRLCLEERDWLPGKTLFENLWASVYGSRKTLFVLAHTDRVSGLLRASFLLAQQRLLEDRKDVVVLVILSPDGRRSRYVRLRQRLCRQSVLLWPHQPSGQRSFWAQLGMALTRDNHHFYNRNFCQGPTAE
The target of a further assay is human TLR7 (Homo sapiens (Human), UniProt Q9NYK1). In words: TLR7 inhibition reporter assay (HEK-Blue cells, SEAP reporter, gardiquimod stimulation). It counts as cell-based.
Sequence of human TLR7 (Q9NYK1 27-1049): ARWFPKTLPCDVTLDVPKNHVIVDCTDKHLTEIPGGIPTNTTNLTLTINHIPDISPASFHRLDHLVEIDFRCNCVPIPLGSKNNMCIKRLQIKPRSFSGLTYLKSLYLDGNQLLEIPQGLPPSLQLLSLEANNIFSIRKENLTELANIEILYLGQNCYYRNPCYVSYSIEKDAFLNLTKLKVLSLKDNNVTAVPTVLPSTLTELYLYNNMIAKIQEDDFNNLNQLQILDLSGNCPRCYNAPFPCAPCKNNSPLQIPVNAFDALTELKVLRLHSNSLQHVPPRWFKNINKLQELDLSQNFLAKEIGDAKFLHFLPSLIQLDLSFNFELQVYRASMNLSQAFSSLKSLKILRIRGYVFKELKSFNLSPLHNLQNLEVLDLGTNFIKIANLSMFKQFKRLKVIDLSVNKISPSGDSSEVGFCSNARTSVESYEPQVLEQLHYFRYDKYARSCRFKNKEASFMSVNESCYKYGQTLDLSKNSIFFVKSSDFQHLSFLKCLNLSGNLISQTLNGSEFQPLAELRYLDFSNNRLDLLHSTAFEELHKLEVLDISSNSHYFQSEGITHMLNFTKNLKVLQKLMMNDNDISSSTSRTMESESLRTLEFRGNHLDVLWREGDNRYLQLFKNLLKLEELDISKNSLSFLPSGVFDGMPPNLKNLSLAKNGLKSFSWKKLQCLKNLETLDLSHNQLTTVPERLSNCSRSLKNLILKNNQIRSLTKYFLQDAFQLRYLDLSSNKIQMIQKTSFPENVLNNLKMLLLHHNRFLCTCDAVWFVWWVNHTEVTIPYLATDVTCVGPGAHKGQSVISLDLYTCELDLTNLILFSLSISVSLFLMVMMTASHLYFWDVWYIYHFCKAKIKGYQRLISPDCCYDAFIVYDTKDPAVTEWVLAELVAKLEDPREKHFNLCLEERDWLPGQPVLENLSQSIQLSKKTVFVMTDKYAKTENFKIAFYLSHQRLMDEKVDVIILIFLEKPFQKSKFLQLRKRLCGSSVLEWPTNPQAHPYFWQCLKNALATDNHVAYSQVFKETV
Another assay has as its target human TLR8 (Homo sapiens (Human), UniProt Q9NR97). Briefly: TLR8 inhibition reporter assay (HEK-Blue cells, SEAP reporter, R848 stimulation).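 Note: compounds tested from 0.05 nM to 50 µM, 22 h at 37 °C, SEAP measured with HEK-Blue Detection, inhibition relative to agonist plus DMSO versus a known inhibitor.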
Where [1] appears, read: read-out: TLR9 IC50, HEK-Blue cells overexpressing human TLR9, ODN2006 5 nM.
Setting [2] is: HEK-Blue cells overexpressing human TLR7, gardiquimod 7.5 μM.
Setting [3] is: read-out: TLR8 IC50, HEK-Blue cells overexpressing human TLR8, R848 15.9 μM.

Sequence of human TLR8 (Q9NR97 27-1041): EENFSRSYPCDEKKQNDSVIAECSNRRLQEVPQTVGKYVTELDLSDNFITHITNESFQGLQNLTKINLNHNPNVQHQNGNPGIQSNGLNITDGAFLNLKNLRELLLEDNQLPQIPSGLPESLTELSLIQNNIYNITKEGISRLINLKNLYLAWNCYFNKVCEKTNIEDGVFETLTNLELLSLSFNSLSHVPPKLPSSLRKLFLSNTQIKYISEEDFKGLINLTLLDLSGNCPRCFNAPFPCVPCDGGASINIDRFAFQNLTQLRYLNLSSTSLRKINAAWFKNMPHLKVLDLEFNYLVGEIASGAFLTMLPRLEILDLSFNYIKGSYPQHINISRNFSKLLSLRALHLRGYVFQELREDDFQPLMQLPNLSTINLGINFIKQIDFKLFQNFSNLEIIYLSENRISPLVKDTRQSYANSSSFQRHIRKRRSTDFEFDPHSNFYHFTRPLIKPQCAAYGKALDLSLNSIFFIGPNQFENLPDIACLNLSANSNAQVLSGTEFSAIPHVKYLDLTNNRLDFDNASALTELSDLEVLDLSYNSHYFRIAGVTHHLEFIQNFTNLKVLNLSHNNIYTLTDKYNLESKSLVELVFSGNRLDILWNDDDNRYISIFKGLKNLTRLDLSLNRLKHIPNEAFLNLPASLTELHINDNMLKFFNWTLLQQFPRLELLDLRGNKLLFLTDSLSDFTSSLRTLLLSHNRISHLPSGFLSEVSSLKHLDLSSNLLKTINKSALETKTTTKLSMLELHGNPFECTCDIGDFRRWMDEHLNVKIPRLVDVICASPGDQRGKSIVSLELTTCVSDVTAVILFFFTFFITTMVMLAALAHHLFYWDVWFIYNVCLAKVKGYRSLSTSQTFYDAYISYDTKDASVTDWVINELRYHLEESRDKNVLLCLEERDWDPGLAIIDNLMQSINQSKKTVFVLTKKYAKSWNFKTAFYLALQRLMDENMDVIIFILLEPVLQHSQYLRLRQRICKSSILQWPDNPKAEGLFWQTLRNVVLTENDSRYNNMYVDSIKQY

As a reminder, the IC50 is the point on the concentration scale where inhibition reaches its midpoint. For `Cc1cc(-c2[nH]c3ccc(C4CCN(C(=O)CN(C)C5COC5)CC4)cc3c2C(C)C)cc(C)n1` [Example 416, 1-(4-(2-(2,6-dimethylpyridin-4-yl)-3-isopropyl-1H-indol-5-yl)piperidin-1-yl)-2-(methyl(oxetan-3-yl)amino)ethan-1-one], the IC50 at human TLR9 (setting [1]) is 4760 nM; on human TLR7 (setting [2]), 4.5 nM; at human TLR8 (setting [3]), 49.7 nM.

For the molecule `Cc1cc(-c2[nH]c3ccc(C4CCN(CC#N)CC4)cc3c2C(C)C)cc(C)n1` [Example 312, 2-(4-(2-(2,6-dimethylpyridin-4-yl)-3-isopropyl-1H-indol-5-yl)piperidin-1-yl)acetonitrile], the IC50 on human TLR9 (setting [1]) stood at 1390 nM; against human TLR7 (setting [2]), 5.4 nM; on human TLR8 (setting [3]) it was 14 nM.

With `Cc1cc(-c2[nH]c3ccc(C4CCN(CC(=O)NC5(C)COC5)CC4)cc3c2C(C)C)cc(C)n1` [Example 233, 2-(4-(2-(2,6-dimethylpyridin-4-yl)-3-isopropyl-1H-indol-5-yl)piperidin-1-yl)-N-(3-methyloxetan-3-yl)acetamide], the 50% inhibitory concentration (IC50) at human TLR9 (setting [1]) came to 970 nM; against human TLR7 (setting [2]), 6.3 nM; at human TLR8 (setting [3]), 6.4 nM.

On to `Cc1cnccc1-c1[nH]c2ccc(C3CCNCC3)cc2c1C(C)C` [Example 23, 3-isopropyl-2-(3-methylpyridin-4-yl)-5-(piperidin-4-yl)-1H-indole], for which the values for the IC50 at human TLR9 (setting [1]), on human TLR7 (setting [2]) and at human TLR8 (setting [3]) were 8790 nM, 97 nM and 32.3 nM, respectively.

As for `Cc1cc(-c2[nH]c3ccc(C4CCN(C(=O)Cn5cnnn5)CC4)cc3c2C(C)C)cc(C)n1` [Example 165, 1-(4-(2-(2,6-dimethylpyridin-4-yl)-3-isopropyl-1H-indol-5-yl)piperidin-1-yl)-2-(1H-tetrazol-1-yl)ethan-1-one], the results for the IC50 on human TLR9 (setting [1]), at human TLR7 (setting [2]) and at human TLR8 (setting [3]) were 17200 nM, 13.3 nM and 66.1 nM, respectively.

Take `Cc1cc(-c2[nH]c3ccc(C4CCN(Cc5nnc(C6CC6)o5)CC4)cc3c2C(C)C)c(C)cn1` [Example 697, 2-cyclopropyl-5-((4-(2-(2,5-dimethylpyridin-4-yl)-3-isopropyl-1H-indol-5-yl)piperidin-1-yl)methyl)-1,3,4-oxadiazole]: the IC50 is above 50000 nM on human TLR9 (setting [1]), 223 nM on human TLR7 (setting [2]) and 20.7 nM at human TLR8 (setting [3]).

As for `CCc1c(-c2ccncc2)[nH]c2ccc(C3CCN(C4CCN(CC(C)C)CC4)CC3)cc12` [Example 779, 3-ethyl-5-(1′-isobutyl-[1,4′-bipiperidin]-4-yl)-2-(pyridin-4-yl)-1H-indole], the IC50 turned out to be 159 nM at human TLR9 (setting [1]), 2110 nM at human TLR7 (setting [2]) and 86.6 nM on human TLR8 (setting [3]).

Take `CC(C)c1c(-c2ccnc(CO)c2)[nH]c2ccc(C3CCNCC3)cc12` [Example 22, (4-(3-isopropyl-5-(piperidin-4-yl)-1H-indol-2-yl)pyridin-2-yl)methanol]: the IC50 on human TLR9 (setting [1]) was 1500 nM; at human TLR7 (setting [2]), 80.6 nM; on human TLR8 (setting [3]), 75 nM.

For the molecule `Cc1cc(-c2[nH]c3ccc(C4CCN(C(=O)CN5CCCC5C)CC4)cc3c2C(C)C)cc(C)n1` (stereo not drawn) [Example 366, 1-(4-(2-(2,6-dimethylpyridin-4-yl)-3-isopropyl-1H-indol-5-yl)piperidin-1-yl)-2-(2-methylpyrrolidin-1-yl)ethan-1-one], the half-maximal inhibitory concentration (IC50) at human TLR9 (setting [1]) was 370 nM; on human TLR7 (setting [2]), 3.2 nM; on human TLR8 (setting [3]) it was 10.9 nM.

Take `CCc1c(-c2ccnc(N(C)C)c2)[nH]c2ccc(C3CCN(C4CCN(CC(C)C)CC4)CC3)cc12` [Example 767, 4-(3-ethyl-5-(1′-isobutyl-[1,4′-bipiperidin]-4-yl)-1H-indol-2-yl)-N,N-dimethylpyridin-2-amine]: the half-inhibitory concentration (IC50) on human TLR9 (setting [1]) was found to be 98 nM; on human TLR7 (setting [2]), 3750 nM; on human TLR8 (setting [3]) it was 1230 nM.

As for `Cc1cc(-c2[nH]c3ccc(C4CCN(CCC(F)(F)F)CC4)cc3c2C(C)C)ccn1` [Example 676, 3-isopropyl-2-(2-methylpyridin-4-yl)-5-(1-(3,3,3-trifluoropropyl)piperidin-4-yl)-1H-indole], the half-inhibitory concentration (IC50) at human TLR9 (setting [1]) amounted to 1930 nM; on human TLR7 (setting [2]) it was 19 nM; on human TLR8 (setting [3]) it was 12.3 nM.

As for `Cc1cc(-c2[nH]c3ccc(C4CCN(CC(O)c5ccccc5)CC4)cc3c2C(C)C)ccn1` (stereo not drawn) [Example 662, 2-(4-(3-isopropyl-2-(2-methylpyridin-4-yl)-1H-indol-5-yl)piperidin-1-yl)-1-phenylethan-1-ol], the concentration for half-maximal inhibition (IC50) on human TLR9 (setting [1]) turned out to be 1150 nM; on human TLR7 (setting [2]), 60.6 nM; on human TLR8 (setting [3]), 29.6 nM.

Consider `Cc1cc(-c2[nH]c3ccc(C4CCN(C)CC4)cc3c2C(C)C)cc(C)n1` [Example 429, 2-(2,6-dimethylpyridin-4-yl)-3-isopropyl-5-(1-methylpiperidin-4-yl)-1H-indole], for which the figures for the IC50 on human TLR9 (setting [1]), against human TLR7 (setting [2]) and at human TLR8 (setting [3]) were 484 nM, 2.2 nM and 5.5 nM, respectively.

As to `Cc1cc(-c2[nH]c3ccc(C4CCN(CC(=O)N5C(C)CCC5C)CC4)cc3c2C(C)C)cc(C)n1` (stereo not drawn) [Example 261, 2-(4-(2-(2,6-dimethylpyridin-4-yl)-3-isopropyl-1H-indol-5-yl)piperidin-1-yl)-1-(2,5-dimethylpyrrolidin-1-yl)ethan-1-one], the values for the concentration for half-maximal inhibition (IC50) on human TLR9 (setting [1]), against human TLR7 (setting [2]) and at human TLR8 (setting [3]) were 451 nM, 5.7 nM and 22.3 nM, respectively.

As to `Cc1cc(-c2[nH]c3ccc(C4CCN(Cc5ncon5)CC4)cc3c2C(C)C)c(F)cn1` [Example 735, 3-((4-(2-(5-fluoro-2-methylpyridin-4-yl)-3-isopropyl-1H-indol-5-yl)piperidin-1-yl)methyl)-1,2,4-oxadiazole], the half-inhibitory concentration (IC50) was above 50000 nM on human TLR9 (setting [1]), 22.3 nM at human TLR7 (setting [2]) and 50 nM at human TLR8 (setting [3]).

As to `Cc1cc(-c2[nH]c3ccc(C4CCN(Cc5ccn[nH]5)CC4)cc3c2C(C)C)c(F)cn1` [Example 682, 5-(1-((1H-pyrazol-5-yl)methyl)piperidin-4-yl)-2-(5-fluoro-2-methylpyridin-4-yl)-3-isopropyl-1H-indole], the IC50 on human TLR9 (setting [1]) is 2720 nM; on human TLR7 (setting [2]) it was 7.5 nM; at human TLR8 (setting [3]), 1.7 nM.

With `Cc1c(-c2ccncc2)[nH]c2ccc(C3CCN(C4CCN(C(C)C)CC4)CC3)cc12` [Example 843, 5-(1′-isopropyl-[1,4′-bipiperidin]-4-yl)-3-methyl-2-(pyridin-4-yl)-1H-indole], the half-maximal inhibitory concentration (IC50) was found to be 38 nM at human TLR9 (read-out: TLR9 IC50, HEK-Blue cells, ODN2006 5 nM); 292 nM against human TLR7 (HEK-Blue cells, gardiquimod 7.5 μM); 28.4 nM on human TLR8 (read-out: TLR8 IC50, HEK-Blue cells, R848 15.9 μM).

As to `Cc1cc(-c2[nH]c3ccc(C4CCN(Cc5c[nH]nn5)CC4)cc3c2C(C)C)c(C)cn1` [Example 690, 5-(1-((1H-1,2,3-triazol-4-yl)methyl)piperidin-4-yl)-2-(2,5-dimethylpyridin-4-yl)-3-isopropyl-1H-indole], the IC50 came to 3510 nM at human TLR9 (setting [1]), 11 nM against human TLR7 (setting [2]) and 1.9 nM on human TLR8 (setting [3]).

As to `COCCNCC(=O)N1CCC(c2ccc3[nH]c(-c4cc(C)nc(C)c4)c(C(C)C)c3c2)CC1` [Example 346, 1-(4-(2-(2,6-dimethylpyridin-4-yl)-3-isopropyl-1H-indol-5-yl)piperidin-1-yl)-2-((2-methoxyethyl)amino)ethan-1-one], the IC50 at human TLR9 (setting [1]) is 1110 nM; at human TLR7 (setting [2]), 4.3 nM; on human TLR8 (setting [3]), 16.7 nM.

As to `Cc1nccc(-c2[nH]c3ccc(C4CCNCC4)cc3c2C(C)C)c1Cl` [Example 44, 2-(3-chloro-2-methylpyridin-4-yl)-3-isopropyl-5-(piperidin-4-yl)-1H-indole], the IC50 at human TLR9 (setting [1]) is 1640 nM; against human TLR7 (setting [2]), 13.9 nM; at human TLR8 (setting [3]), 14.4 nM.

Take `Cc1cc(-c2[nH]c3ccc(C4CCN(C(=O)CCNc5ncccn5)CC4)cc3c2C(C)C)cc(C)n1` [Example 146, 1-(4-(2-(2,6-dimethylpyridin-4-yl)-3-isopropyl-1H-indol-5-yl)piperidin-1-yl)-3-(pyrimidin-2-ylamino) propan-1-one]: the IC50 at human TLR9 (setting [1]) is 46800 nM; at human TLR7 (setting [2]) it was 7.4 nM; at human TLR8 (setting [3]) it was 85.9 nM.

With `CNCCC(=O)N1CCC(c2ccc3[nH]c(-c4ccnc(C)c4)c(C(C)C)c3c2)CC1` [Example 570, 1-(4-(3-isopropyl-2-(2-methylpyridin-4-yl)-1H-indol-5-yl)piperidin-1-yl)-3-(methylamino)propan-1-one], the results for the IC50 at human TLR9 (setting [1]), against human TLR7 (setting [2]) and on human TLR8 (setting [3]) were 971 nM, 13.1 nM and 12 nM, respectively.

Turning to `CC(C)c1c(-c2ccnc(C(C)(C)O)c2)[nH]c2ccc(C3CCNCC3)cc12` [Example 58, 2-(4-(3-isopropyl-5-(piperidin-4-yl)-1H-indol-2-yl)pyridin-2-yl)propan-2-ol], the figures for the half-maximal inhibitory concentration (IC50) on human TLR9 (setting [1]), on human TLR7 (setting [2]) and at human TLR8 (setting [3]) were 888 nM, 31.2 nM and 667 nM, respectively.

As for `Cc1cc(-c2[nH]c3ccc(C4CCN(C(=O)CNS(C)(=O)=O)CC4)cc3c2C(C)C)cc(C)n1` [Example 150, N-(2-(4-(2-(2,6-dimethylpyridin-4-yl)-3-isopropyl-1H-indol-5-yl)piperidin-1-yl)-2-oxoethyl) methanesulfonamide], the 50% inhibitory concentration (IC50) was 53100 nM on human TLR9 (setting [1]), 7.3 nM at human TLR7 (setting [2]) and 71.6 nM on human TLR8 (setting [3]).

Regarding `Cc1cc(-c2[nH]c3ccc(C4CCN(Cc5cc(C)on5)CC4)cc3c2C(C)C)c(F)cn1` [Example 686, 3-((4-(2-(5-fluoro-2-methylpyridin-4-yl)-3-isopropyl-1H-indol-5-yl)piperidin-1-yl)methyl)-5-methylisoxazole], the figures for the half-inhibitory concentration (IC50) at human TLR9 (setting [1]), on human TLR7 (setting [2]) and on human TLR8 (setting [3]) were 9450 nM, 35.2 nM and 4.1 nM, respectively.

As for `Cc1cc(-c2[nH]c3ccc(C4CCN(C(=O)[C@@H]5CC(F)(F)CN5)CC4)cc3c2C(C)C)cc(C)n1` [Example 189, (S)-(4,4-difluoropyrrolidin-2-yl)(4-(2-(2,6-dimethylpyridin-4-yl)-3-isopropyl-1H-indol-5-yl)piperidin-1-yl) methanone], the IC50 turned out to be 15100 nM at human TLR9 (setting [1]), 7 nM at human TLR7 (setting [2]) and 74.3 nM at human TLR8 (setting [3]).
